Results: PMC6268188, “Comparative Studies of the (Anti) Mutagenicity of Baccharis dracunculifolia and Artepillin C by the Bacterial Reverse Mutation Test” (Molecules, 2012)
Values joined by “and” are separate entries in the source; they are usually repeats but may differ in a detail not shown here. Equal values may be shown once. Read-outs that look alike come from different tables or passages of the source. Marks after values point to notes of the source that are not given here.

Tests used:
[1] = system: S. typhimurium TA100
[2] = system: S. typhimurium TA98
[3] = system: S. typhimurium TA97a
[4] = system: S. typhimurium TA102; assay: Antimutagenicity assay (Ames test with known mutagens), strain TA102; assay type: cell-based, Salmonella typhimurium
[5] = 0.69 µg/plate + AFB1 0.5 μg/plate, TA 100, + S9
[6] = 0.69 µg/plate + SA 1.25 μg/plate, TA 100, − S9
[7] = 1.37 µg/plate + AFB1 0.5 μg/plate, TA 100, + S9
[8] = 1.37 µg/plate + SA 1.25 μg/plate, TA 100, − S9
[9] = 2.75 µg/plate + AFB1 0.5 μg/plate, TA 100, + S9
[10] = 2.75 µg/plate + SA 1.25 μg/plate, TA 100, − S9
[11] = 5.49 µg/plate + AFB1 0.5 μg/plate, TA 100, + S9
[12] = 5.49 µg/plate + SA 1.25 μg/plate, TA 100, − S9
[13] = […] + SA 1.25 μg/plate, TA 100, − S9
[14] = 0.69 µg/plate + AF 10.0 μg/plate, TA 102, + S9
[15] = 1.37 µg/plate + AF 10.0 μg/plate, TA 102, + S9
[16] = 1.37 µg/plate + MMC 0.5 μg/plate, TA 102, − S9
[17] = 2.75 µg/plate + AF 10.0 μg/plate, TA 102, + S9
[18] = 2.75 µg/plate + MMC 0.5 μg/plate, TA 102, − S9

CC(C)=CCc1cc(/C=C/C(=O)O)cc(CC=C(C)C)c1O [ArtC, 3-{4-hydroxy-3,5-di(3-methyl-2-butenyl)phenyl}-2(E)-propenoic acid]
% inhibition [1]: 30 ** %
Number of revertants (M ± SD)/ plate [1]: 1885 ± 25 revertants/plate and 1507 ± 43 revertants/plate
antimutagenic effect class [1]: 30 ** (key: *: no antimutagenic effect (< 25% inhibition); **: moderate effect (25% - 40% inhibition); ***: strong antimutagenic effect (> 40% inhibition))
% inhibition [1, 5]: 26%
Number of revertants (M ± SD)/ plate [1, 5]: 1595 ± 37 revertants/plate
% inhibition [1, 6]: 16%
Number of revertants (M ± SD)/ plate [1, 6]: 1833 ± 48 revertants/plate
antimutagenic effect class [1, 6]: * (no antimutagenic effect (< 25% inhibition))
% inhibition [1, 7]: 24%
Number of revertants (M ± SD)/ plate [1, 7]: 1639 ± 33 revertants/plate
antimutagenic effect class [1, 7]: * (no antimutagenic effect (< 25% inhibition))
% inhibition [1, 8]: 11%
Number of revertants (M ± SD)/ plate [1, 8]: 1957 ± 36 revertants/plate
antimutagenic effect class [1, 8]: * (no antimutagenic effect (< 25% inhibition))
% inhibition [1, 9]: 27%
Number of revertants (M ± SD)/ plate [1, 9]: 1575 ± 11 revertants/plate
% inhibition [1, 10]: 17%
Number of revertants (M ± SD)/ plate [1, 10]: 1813 ± 24 revertants/plate
antimutagenic effect class [1, 10]: * (no antimutagenic effect (< 25% inhibition))
% inhibition [1, 11]: 26%
Number of revertants (M ± SD)/ plate [1, 11]: 1600 ± 38 revertants/plate
% inhibition [1, 12]: 21%
Number of revertants (M ± SD)/ plate [1, 12]: 1727 ± 39 revertants/plate
antimutagenic effect class [1, 12]: * (no antimutagenic effect (< 25% inhibition))
inhibition of AFB1-induced mutation (text; number = highest observed percent inhibition) ([1]; TA100, with metabolic activation, AFB1): did inhibit mutation
% inhibition [1, 13]: 14%
antimutagenic effect class [1, 13]: * (no antimutagenic effect (< 25% inhibition))
MI (mutagenicity index) ([2]; 0.69 µg/plate, TA 98, + S9): 0.9
Number of revertants (M ± SD)/ plate ([2]; 0.69 µg/plate, TA 98, + S9): 28 ± 3 revertants/plate
MI (mutagenicity index) ([2]; 0.69 µg/plate, TA 98, − S9): 1.0
Number of revertants (M ± SD)/ plate ([2]; 0.69 µg/plate, TA 98, − S9): 21 ± 3 revertants/plate
MI (mutagenicity index) ([2]; 1.37 µg/plate, TA 98, + S9): 1.1
Number of revertants (M ± SD)/ plate ([2]; 1.37 µg/plate, TA 98, + S9): 32 ± 1 revertants/plate
MI (mutagenicity index) ([2]; 1.37 µg/plate, TA 98, − S9): 1.2
Number of revertants (M ± SD)/ plate ([2]; 1.37 µg/plate, TA 98, − S9): 24 ± 4 revertants/plate
MI (mutagenicity index) ([2]; 2.75 µg/plate, TA 98, + S9): 1.0
Number of revertants (M ± SD)/ plate ([2]; 2.75 µg/plate, TA 98, + S9): 29 ± 3 revertants/plate
MI (mutagenicity index) ([2]; 2.75 µg/plate, TA 98, − S9): 1.4
Number of revertants (M ± SD)/ plate ([2]; 2.75 µg/plate, TA 98, − S9): 28 ± 5 revertants/plate
MI (mutagenicity index) ([2]; 5.49 µg/plate, TA 98, + S9): 1.1
Number of revertants (M ± SD)/ plate ([2]; 5.49 µg/plate, TA 98, + S9): 32 ± 2 revertants/plate
MI (mutagenicity index) ([2]; 5.49 µg/plate, TA 98, − S9): 1.5
Number of revertants (M ± SD)/ plate ([2]; 5.49 µg/plate, TA 98, − S9): 29 ± 1 revertants/plate
MI (mutagenicity index) ([3]; 0.69 µg/plate, TA 97, + S9): 1.2
Number of revertants (M ± SD)/ plate ([3]; 0.69 µg/plate, TA 97, + S9): 194 ± 3 revertants/plate
MI (mutagenicity index) ([3]; 0.69 µg/plate, TA 97, − S9): 1.4
Number of revertants (M ± SD)/ plate ([3]; 0.69 µg/plate, TA 97, − S9): 207 ± 3 revertants/plate
MI (mutagenicity index) ([3]; 1.37 µg/plate, TA 97, + S9): 1.1
Number of revertants (M ± SD)/ plate ([3]; 1.37 µg/plate, TA 97, + S9): 174 ± 1 revertants/plate
MI (mutagenicity index) ([3]; 1.37 µg/plate, TA 97, − S9): 1.5
Number of revertants (M ± SD)/ plate ([3]; 1.37 µg/plate, TA 97, − S9): 221 ± 6 revertants/plate
MI (mutagenicity index) ([3]; 2.75 µg/plate, TA 97, + S9): 1.1
Number of revertants (M ± SD)/ plate ([3]; 2.75 µg/plate, TA 97, + S9): 175 ± 4 revertants/plate
MI (mutagenicity index) ([3]; 2.75 µg/plate, TA 97, − S9): 1.6
Number of revertants (M ± SD)/ plate ([3]; 2.75 µg/plate, TA 97, − S9): 246 ± 5 revertants/plate
MI (mutagenicity index) ([3]; 5.49 µg/plate, TA 97, + S9): 1.1
Number of revertants (M ± SD)/ plate ([3]; 5.49 µg/plate, TA 97, + S9): 175 ± 1 revertants/plate
MI (mutagenicity index) ([3]; 5.49 µg/plate, TA 97, − S9): 1.4
Number of revertants (M ± SD)/ plate ([3]; 5.49 µg/plate, TA 97, − S9): 207 ± 5 revertants/plate
Number of revertants (M ± SD)/ plate [4]: 879 ± 11 revertants/plate and 529 ± 20 revertants/plate
% inhibition [4, 14]: 41%
Number of revertants (M ± SD)/ plate [4, 14]: 645 ± 23 revertants/plate
antimutagenic effect class [4, 14]: *** (strong antimutagenic effect (> 40% inhibition))
Number of revertants (M ± SD)/ plate ([4]; 0.69 µg/plate + MMC 0.5 μg/plate, TA 102, − S9): 1096 ± 19 revertants/plate
% inhibition [4, 15]: 46%
Number of revertants (M ± SD)/ plate [4, 15]: 595 ± 25 revertants/plate
antimutagenic effect class [4, 15]: *** (strong antimutagenic effect (> 40% inhibition))
% inhibition [4, 16]: 5%
Number of revertants (M ± SD)/ plate [4, 16]: 1022 ± 18 revertants/plate
antimutagenic effect class [4, 16]: * (no antimutagenic effect (< 25% inhibition))
% inhibition [4, 17]: 48%
Number of revertants (M ± SD)/ plate [4, 17]: 566 ± 17 revertants/plate
antimutagenic effect class [4, 17]: *** (strong antimutagenic effect (> 40% inhibition))
% inhibition [4, 18]: 7%
Number of revertants (M ± SD)/ plate [4, 18]: 994 ± 25 revertants/plate
antimutagenic effect class [4, 18]: * (no antimutagenic effect (< 25% inhibition))
